From paper PMC6325638 (Clinics in liver disease, 2017)
Where two headings read alike, the source gives them in different places.

Columns and labels:
zebrafish larvae [1] = test system: zebrafish larvae
[2] = test system: 3D multicellular microphysiological systems (MPS) of the human liver; settings: 3D multicellular microfluidic human liver model; cited from earlier work
zebrafish larvae [3] = settings: in vivo
cultured rat hepatocytes = experiment: ROS induction and death in cultured hepatocytes; type: cell-based; settings: 96-well plates, oxyethidium fluorescence
[4] = 72 hpf zebrafish larvae, 0.66 μM
[5] = 72 hpf zebrafish larvae, 6.6 μM
[6] = 72 hpf zebrafish larvae, 200 μM
[7] = 72 hpf zebrafish larvae, 0.07 μM
[8] = 72 hpf zebrafish larvae, 0.2 μM

SMILES | Live/dead (translucent = live, opaque = dead) (zebrafish larvae [1]; [4]) | Live/dead (translucent = live, opaque = dead) (zebrafish larvae [1]; 72 hpf zebrafish larvae, 2 μM) | Live/dead (translucent = live, opaque = dead) (zebrafish larvae [1]; [5]) | Live/dead (translucent = live, opaque = dead) (zebrafish larvae [1]; 72 hpf zebrafish larvae, 20 μM) | Live/dead (translucent = live, opaque = dead) (zebrafish larvae [1]; 72 hpf zebrafish larvae, 66 μM) | Live/dead (translucent = live, opaque = dead) (zebrafish larvae [1]; [6]) | Live/dead (translucent = live, opaque = dead) (zebrafish larvae [1]; [7]) | Visual toxicity (bent tail, distended peritoneum, edema, pericardial congestion) (zebrafish larvae [1]; [7]) | Live/dead (translucent = live, opaque = dead) (zebrafish larvae [1]; [8]) | Visual toxicity (bent tail, distended peritoneum, edema, pericardial congestion) (zebrafish larvae [1]; [8]) | Visual toxicity (bent tail, distended peritoneum, edema, pericardial congestion) (zebrafish larvae [1]; [4]) | Visual toxicity (bent tail, distended peritoneum, edema, pericardial congestion) (zebrafish larvae [1]; 72 hpf zebrafish larvae, 2 μM) | Visual toxicity (bent tail, distended peritoneum, edema, pericardial congestion) (zebrafish larvae [1]; [5]) | Visual toxicity (bent tail, distended peritoneum, edema, pericardial congestion) (zebrafish larvae [1]; 72 hpf zebrafish larvae, 20 μM) | also measured
Cn1c(=O)c2c(ncn2C)n(C)c1=O [Caffeine] | – | – | – | – | – | – | – | – | – | – | – | – | – | – | Live/dead (translucent = live, opaque = dead) (zebrafish larvae [1]; 72 hpf zebrafish larvae, 3 μM): 4/0; Live/dead (translucent = live, opaque = dead) (zebrafish larvae [1]; 72 hpf zebrafish larvae, 10 μM): 4/0; Live/dead (translucent = live, opaque = dead) (zebrafish larvae [1]; 72 hpf zebrafish larvae, 30 μM): 4/0; Live/dead (translucent = live, opaque = dead) (zebrafish larvae [1]; 72 hpf zebrafish larvae, 100 μM): 4/0; Live/dead (translucent = live, opaque = dead) (zebrafish larvae [1]; 72 hpf zebrafish larvae, 300 μM): 4/0; Live/dead (translucent = live, opaque = dead) (zebrafish larvae [1]; 72 hpf zebrafish larvae, 1000 μM): 4/0
CN(Cc1cnc2nc(N)nc(N)c2n1)c1ccc(C(=O)N[C@@H](CCC(=O)O)C(=O)O)cc1 [methotrexate] | – | – | – | – | – | – | – | – | – | – | – | – | – | – | Chronic drug effect in human liver MPS [2]: induction of fibrosis
CC1=CC(=O)c2ccccc2C1=O [Menadione] | 4/0 | 4/0 | 4/0 | 0/4 | 0/4 | 0/4 | – | – | – | – | – | – | – | – | Generation of ROS in zebrafish (zebrafish larvae [3]): time-dependent and dose-dependent generation of ROS; ROS induction and death in cultured hepatocytes (cultured rat hepatocytes): ROS induction and death in cultured hepatocytes; Visual toxicity (bent tail, distended peritoneum, edema, pericardial congestion) (zebrafish larvae [1]; zebrafish, in vivo, 0.66 μM): 0/4; Visual toxicity (bent tail, distended peritoneum, edema, pericardial congestion) (zebrafish larvae [1]; zebrafish, in vivo, 2 μM): 2/4; Visual toxicity (bent tail, distended peritoneum, edema, pericardial congestion) (zebrafish larvae [1]; zebrafish, in vivo, 6.6 μM): 1/4
C=C(C)[C@H]1Cc2c(ccc3c2O[C@@H]2COc4cc(OC)c(OC)cc4[C@@H]2C3=O)O1 [Rotenone] | 4/0 | 4/0 | – | 1/4 | – | – | 4/0 | 2/4 | 4/0 | 3/4 | 2/4 | 1/4 | 0/3 | 1/1 | –
N#CC(C#N)=NNc1cccc(Cl)c1 [CCCP, Carbonyl cyandide m-chorophenyl hydrazone] | 4/0 | 4/0 | 4/0 | – | – | – | 4/0 | 2/4 | 4/0 | 4/4 | 3/4 | 3/4 | 2/4 | 0/1 | –
CCCCc1oc2ccccc2c1C(=O)c1cc(I)c(OCCN(CC)CC)c(I)c1 [Amiodarone] | 4/0 | 4/0 | 4/0 | 4/0 | 0/4 | 0/4 | – | – | – | – | – | – | – | – | –
